For this test, the target named is T1, oestrogen receptor (ER) (Homo sapiens, UniProt P03372).
T1 construct: These MVLN cells express, along with the functional oestrogen receptor (ER), a reporter construct; endogenous in cells; host or cells: MVLN cells (MCF7 derivative carrying a luciferase reporter construct)
T1 sequence (P03372 1-595): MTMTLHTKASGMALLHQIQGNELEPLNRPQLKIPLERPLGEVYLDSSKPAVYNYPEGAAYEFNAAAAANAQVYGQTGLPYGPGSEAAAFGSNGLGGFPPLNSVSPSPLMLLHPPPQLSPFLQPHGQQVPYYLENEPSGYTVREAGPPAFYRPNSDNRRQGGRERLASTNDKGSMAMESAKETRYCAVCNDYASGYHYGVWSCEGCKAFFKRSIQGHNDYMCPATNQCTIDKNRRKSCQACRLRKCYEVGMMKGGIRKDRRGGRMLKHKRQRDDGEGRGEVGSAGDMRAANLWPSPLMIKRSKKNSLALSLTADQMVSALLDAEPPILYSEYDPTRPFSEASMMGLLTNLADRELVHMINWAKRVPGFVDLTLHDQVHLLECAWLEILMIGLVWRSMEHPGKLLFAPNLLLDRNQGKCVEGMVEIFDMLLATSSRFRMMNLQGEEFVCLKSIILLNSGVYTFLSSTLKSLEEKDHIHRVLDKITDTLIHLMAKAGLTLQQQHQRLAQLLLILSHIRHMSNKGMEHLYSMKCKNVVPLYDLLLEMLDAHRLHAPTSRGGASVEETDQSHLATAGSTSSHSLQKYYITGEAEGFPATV
Nature of the test: Anti-oestrogenic action in MVLN cells (inhibition of estradiol-induced luciferase). It counts as cell-based. The following applies: inhibition of estradiol-induced luciferase signal, value of Ex. 44 is a mean value, read-out: Antioestrogenic action in vitro: MVLN transactivation antagonism IC50. The gist of the method: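 MVLN cells, MCF7 breast cancer derivatives carrying functional ER plus an ER-activated luciferase reporter, were treated with compounds in the presence of estradiol. Anti-oestrogenic activity taken as inhibition of the estradiol-induced luciferase signal.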
For the compound `O=S(=O)(CCCN(CCCCCCC1=C(c2ccc(F)cc2)CCCc2c1ccc(O)c2F)Cc1ccc(F)cc1)CCCC(F)(F)C(F)(F)F` [Example 65, 4-Fluoro-9-{6-[(4-fluorobenzyl){3-[(4,4,5,5,5-pentafluoropentyl)sulphonyl]propyl}amino]hexyl}-8-(4-fluorophenyl)-6,7-dihydro-5H-benzo[7]annulen-3-ol], the IC50 amounted to 116 nM.
For `O=S(=O)(CCCCNCCCCCCC1=C(c2cc(F)cc(F)c2)CCCc2cc(O)ccc21)CCCC(F)(F)F` [Example 67, 8-(3,5-Difluorophenyl)-9-[6-({4-[(4,4,4-trifluorobutyl)sulphonyl]butyl}amino)hexyl]-6,7-dihydro-5H-benzo[7]annulen-3-ol], the IC50 is 20 nM.
On to `CN(CCCCCCC1=C(c2cc(F)cc(F)c2)CCCc2cc(O)ccc21)CCCCCS(=O)(=O)CCC(F)(F)F` [Example 68, 8-(3,5-Difluorophenyl)-9-[6-(methyl{5-[(3,3,3-trifluoropropyl)sulphonyl]pentyl}amino)hexyl]-6,7-dihydro-5H-benzo[7]annulen-3-ol], for which the IC50 amounted to 106 nM.
For `CN(CCCCCCC1=C(c2cc(F)cc(F)c2)CCCc2cc(O)ccc21)CCCCS(=O)(=O)CCC(F)(F)C(F)(F)F` [Example 69, 8-(3,5-Difluorophenyl)-9-[6-(methyl{4-[(3,3,4,4,4-pentafluorobutyl)sulphonyl]butyl}amino)hexyl]-6,7-dihydro-5H-benzo[7]annulen-3-ol] the value was 19 nM.
The same measure for `CN(CCCCCCC1=C(c2cc(F)cc(F)c2)CCCc2cc(O)ccc21)CCCS(=O)(=O)CCCCC(F)(F)F` [Example 70, 8-(3,5-Difluorophenyl)-9-[6-(methyl{3-[(5,5,5-trifluoropentyl)sulphonyl]propyl}amino)hexyl]-6,7-dihydro-5H-benzo[7]annulen-3-ol]: 18 nM.
For `CN(CCCCCCC1=C(c2ccc(F)c(F)c2)CCCc2cc(O)ccc21)CCCCCS(=O)(=O)CCC(F)(F)F` [Example 71, 8-(3,4-Difluorophenyl)-9-[6-(methyl{5-[(3,3,3-trifluoropropyl)sulphonyl]pentyl}amino)hexyl]-6,7-dihydro-5H-benzo[7]annulen-3-ol], the IC50 came out at 56 nM.
In the case of `CN(CCCCCCC1=C(c2ccc(F)c(F)c2)CCCc2cc(O)ccc21)CCCS(=O)(=O)CCCCC(F)(F)F` [Example 73, 8-(3,4-Difluorophenyl)-9-[6-(methyl{3-[(5,5,5-trifluoropentyl)sulphonyl]propyl}amino)hexyl]-6,7-dihydro-5H-benzo[7]annulen-3-ol], the IC50 came to 18 nM.
Turning to `O=S(=O)(CCCN(CCF)CCCCCCC1=C(c2ccc(F)cc2)CCCc2cc(O)ccc21)CCCC(F)(F)C(F)(F)F` [Example 74, 9-{6-[(2-Fluoroethyl){3-[(4,4,5,5,5-pentafluoropentyl)sulphonyl]propyl}amino]hexyl}-8-(4-fluorophenyl)-6,7-dihydro-5H-benzo[7]annulen-3-ol], the IC50 is 28 nM.
For `CN(CCCCCCC1=C(c2ccc(F)cc2)CCCc2cc(O)ccc21)CCCCS(=O)(=O)CCC(F)(F)C(F)(F)F` [Example 75, 8-(4-Fluorophenyl)-9-[6-(methyl{4-[(3,3,4,4,4-pentafluorobutyl)sulphonyl]butyl}amino)hexyl]-6,7-dihydro-5H-benzo[7]annulen-3-ol], the IC50 came out at 11 nM.
As for `O=S(=O)(CCCCNCCCCCCC1=C(c2ccc(F)cc2)CCCc2cc(O)ccc21)CCCC(F)(F)F` [Example 77, 8-(4-Fluorophenyl)-9-[6-({4-[(4,4,4-trifluorobutyl)sulphonyl]butyl}amino)hexyl]-6,7-dihydro-5H-benzo[7]annulen-3-ol], the IC50 was 10 nM.
Consider `CN(CCCCCCC1=C(c2ccc(F)cc2)CCCc2cc(O)ccc21)CCCSCCCC(F)(F)C(F)(F)F` [Example 78, 8-(4-Fluorophenyl)-9-[6-(methyl{3-[(4,4,5,5,5-pentafluoropentyl)sulphanyl]propyl}amino)hexyl]-6,7-dihydro-5H-benzo[7]annulen-3-ol], for which the IC50 was determined as 31 nM.
In the case of `CN(CCCCCCC1=C(c2ccc(F)cc2)CCCc2cc(O)ccc21)CCCS(=O)(=O)CCCCC(F)(F)C(F)(F)F` [Example 79, 8-(4-Fluorophenyl)-9-[6-(methyl{3-[(5,5,6,6,6-pentafluorohexyl)sulphonyl]propyl}amino)hexyl]-6,7-dihydro-5H-benzo[7]annulen-3-ol], the IC50 is 17 nM.
For `O=C(CN(CCCCCCC1=C(c2ccc(F)cc2)CCCc2cc(O)ccc21)CCCCS(=O)(=O)CCCC(F)(F)F)OCc1ccccc1` [Example 81, Benzyl-N-{6-[8-(4-fluorophenyl)-3-hydroxy-6,7-dihydro-5H-benzo[7]annulen-9-yl]hexyl}-N-{4-[(4,4,4-trifluorobutyl)sulphonyl]butyl}glycinate] the value was 40 nM; for `COC(=O)CN(CCCCCCC1=C(c2ccc(F)cc2)CCCc2cc(O)ccc21)CCCCS(=O)(=O)CCCC(F)(F)F` [Example 82, Methyl-N-{6-[8-(4-fluorophenyl)-3-hydroxy-6,7-dihydro-5H-benzo[7]annulen-9-yl]hexyl}-N-{4-[(4,4,4-trifluorobutyl)sulphonyl]butyl}glycinate], 13 nM.
Consider `COC(=O)CCN(CCCCCCC1=C(c2ccc(F)cc2)CCCc2cc(O)ccc21)CCCCS(=O)(=O)CCCC(F)(F)F` [Example 83, Methyl-N-{6-[8-(4-fluorophenyl)-3-hydroxy-6,7-dihydro-5H-benzo[7]annulen-9-yl]hexyl}-N-{4-[(4,4,4-trifluorobutyl)sulphonyl]butyl}-beta-alaninate], for which the IC50 worked out at 13 nM.
For `O=S(=O)(CCCN(CCCCCCC1=C(c2ccc(F)cc2)CCCc2c1ccc(O)c2F)CC(F)(F)F)CCCC(F)(F)C(F)(F)F` [Example 84, 4-Fluoro-8-(4-fluorophenyl)-9-{6-[{3-[(4,4,5,5,5-pentafluoropentyl)sulphonyl]propyl}(2,2,2-trifluoroethyl)amino]hexyl}-6,7-dihydro-5H-benzo[7]annulen-3-ol] the value was 252 nM; for `O=S(=O)(CCCN(CCF)CCCCCCC1=C(c2ccc(F)cc2)CCCc2c1ccc(O)c2F)CCCC(F)(F)C(F)(F)F` [Example 85, 4-Fluoro-9-{6-[(2-fluoroethyl){3-[(4,4,5,5,5-pentafluoropentyl)sulphonyl]propyl}amino]hexyl}-8-(4-fluorophenyl)-6,7-dihydro-5H-benzo[7]annulen-3-ol], 51 nM; for `CN(CCCCCCC1=C(c2ccc(F)cc2)CCCc2c1ccc(O)c2F)CCCSCCCC(F)(F)C(F)(F)F` [Example 86, 4-Fluoro-8-(4-fluorophenyl)-9-[6-(methyl{3-[(4,4,5,5,5-pentafluoropentyl)sulphanyl]propyl}amino)hexyl]-6,7-dihydro-5H-benzo[7]annulen-3-ol], 25 nM.
Turning to `CN(CCCCCCC1=C(c2ccc(F)cc2)CCCc2c1ccc(O)c2F)CCCS(=O)(=O)CCCCC(F)(F)F` [Example 87, 4-Fluoro-8-(4-fluorophenyl)-9-[6-(methyl{3-[(5,5,5-trifluoropentyl)sulphonyl]propyl}amino)hexyl]-6,7-dihydro-5H-benzo[7]annulen-3-ol], the IC50 was found to be 10 nM.
For the compound `COC(=O)CCCN(CCCCCCC1=C(c2ccc(F)cc2)CCCc2cc(O)ccc21)CCCCS(=O)(=O)CCCC(F)(F)F` [Example 88, Methyl-4-({6-[8-(4-fluorophenyl)-3-hydroxy-6,7-dihydro-5H-benzo[7]annulen-9-yl]hexyl}{4-[(4,4,4-trifluorobutyl)sulphonyl]butyl}amino)butanoate], the IC50 was 24 nM.
On to `CC(=O)N(CCCCCCC1=C(c2ccc(F)cc2)CCCc2cc(O)ccc21)CCCCS(=O)(=O)CCCC(F)(F)F` [Example 89, N-{6-[8-(4-Fluorophenyl)-3-hydroxy-6,7-dihydro-5H-benzo[7]annulen-9-yl]hexyl}-N-{4-[(4,4,4-trifluorobutyl)sulphonyl]butyl}acetamide], for which the IC50 worked out at 54 nM.
For `N#CCN(CCCCCCC1=C(c2ccc(F)cc2)CCCc2cc(O)ccc21)CCCCS(=O)(=O)CCCC(F)(F)F` [Example 90, ({6-[8-(4-Fluorophenyl)-3-hydroxy-6,7-dihydro-5H-benzo[7]annulen-9-yl]hexyl}{4-[(4,4,4-trifluorobutyl)sulphonyl]butyl}amino)acetonitrile] the value was 14 nM.
Take `CS(=O)(=O)N(CCCCCCC1=C(c2ccc(F)cc2)CCCc2cc(O)ccc21)CCCCS(=O)(=O)CCCC(F)(F)F` [Example 91, N-{6-[8-(4-Fluorophenyl)-3-hydroxy-6,7-dihydro-5H-benzo[7]annulen-9-yl]hexyl}-N-{4-[(4,4,4-trifluorobutyl)sulphonyl]butyl}methanesulphonamide]: the IC50 is 67 nM.
The same measure for `O=S(=O)(CCCCN(CCO)CCCCCCC1=C(c2ccc(F)cc2)CCCc2cc(O)ccc21)CCCC(F)(F)F` [Example 92, 8-(4-Fluorophenyl)-9-{6-[(2-hydroxyethyl){4-[(4,4,4-trifluorobutyl)sulphonyl]butyl}amino]hexyl}-6,7-dihydro-5H-benzo[7]annulen-3-ol]: 5 nM.
